{"source": "the supplement of paper PMC10307832", "test_in_all_cases": "relative viability (nuclei count vs DMSO), 5 days (fraction); higher = more cells survive", "key": {"[1]": {"compound": "CC[C@H](C)N1C=C(C2=C(C=C(C=C21)C3=CN=C(C=C3)N4CCNCC4)C(=O)NCC5=C(C=C(NC5=O)C)C)C [GSK126] + CS(=O)(=O)CCNCc1ccc(-c2ccc3ncnc(Nc4ccc(OCc5cccc(F)c5)c(Cl)c4)c3c2)o1 [Lapatinib] (partner 2 µM)", "outline": "(§1)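 Nuclei were stained with Hoechst during a one-step fixation (final 0.05% Triton X-100, 1% formaldehyde, 1 ug/ml Hoechst) carried out 5 days after dosing, then counted on 4× images. The cells, lung cancer lines in 1536-well plates, had been dosed by pin tool the day after seeding with one drug alone or a fixed anchor-drug dose plus five library-drug doses (not always all listed) in √10 steps. Relative viability is the nuclei count in treated wells divided by that in vehicle wells, and each value is the median of duplicate plates.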"}, "[2]": {"compound": "CC[C@H](C)N1C=C(C2=C(C=C(C=C21)C3=CN=C(C=C3)N4CCNCC4)C(=O)NCC5=C(C=C(NC5=O)C)C)C [GSK126] + Nc1nc2[nH]cc(CCc3ccc(C(=O)N[C@@H](CCC(=O)O)C(=O)O)cc3)c2c(=O)[nH]1 [Pemetrexed] (partner 0.2 µM)", "outline": "as §1"}, "[3]": {"compound": "C1CC(C1)(C(=O)O)C(=O)O.[NH2-].[NH2-].[Pt+2] [Carboplatin] + CCNC(=O)c1noc(-c2cc(C(C)C)c(O)cc2O)c1-c1ccc(CN2CCOCC2)cc1 [Luminespib] (partner 0.01 µM)", "outline": "as §1"}, "[4]": {"compound": "NS(=O)(=O)OC[C@@H]1C[C@@H](n2ccc3c(N[C@H]4CCc5ccccc54)ncnc32)C[C@@H]1O [MLN4924] + Nc1ncn([C@H]2C[C@H](O)[C@@H](CO)O2)c(=O)n1 [Decitabine] (partner 2 µM)", "outline": "as §1"}}}
{"cell line": "UMC-11", "values": [{"measurement": "relative viability", "setting": "[1]; first compound 0.08 µM", "value": 1.05}, {"measurement": "relative viability", "setting": "[1]; first compound 0.253 µM", "value": 0.998}, {"measurement": "relative viability", "setting": "[1]; first compound 0.8 µM", "value": 1.13}, {"measurement": "relative viability", "setting": "[1]; first compound 2.53 µM", "value": 0.796}, {"measurement": "relative viability", "setting": "[1]; first compound 8 µM", "value": 0.959}, {"measurement": "relative viability", "setting": "[2]; first compound 0.08 µM", "value": 0.841}, {"measurement": "relative viability", "setting": "[2]; first compound 0.253 µM", "value": 0.749}, {"measurement": "relative viability", "setting": "[2]; first compound 0.8 µM", "value": 0.756}, {"measurement": "relative viability", "setting": "[2]; first compound 2.53 µM", "value": 0.744}, {"measurement": "relative viability", "setting": "[2]; first compound 8 µM", "value": 0.831}, {"measurement": "relative viability", "setting": "[3]; first compound 0.08 µM", "value": 0.961}, {"measurement": "relative viability", "setting": "[3]; first compound 0.253 µM", "value": 1.01}, {"measurement": "relative viability", "setting": "[3]; first compound 0.8 µM", "value": 1}, {"measurement": "relative viability", "setting": "[3]; first compound 2.53 µM", "value": 0.955}, {"measurement": "relative viability", "setting": "[3]; first compound 8 µM", "value": 0.651}, {"measurement": "relative viability", "setting": "[4]; first compound 0.04 µM", "value": 0.559}, {"measurement": "relative viability", "setting": "[4]; first compound 0.1265 µM", "value": 0.511}, {"measurement": "relative viability", "setting": "[4]; first compound 0.4 µM", "value": 0.402}, {"measurement": "relative viability", "setting": "[4]; first compound 1.265 µM", "value": 0.309}, {"measurement": "relative viability", "setting": "[4]; first compound 4 µM", "value": 0.277}]}
